In patent publication US10538555B2, “Macrocyclic inhibitors of the PD-1/PD-L1 and CD80(B7-1)/PD-L1 protein/protein interactions” (BRISTOL-MYERS SQUIBB COMPANY, priority 2014, dated 2020):
Where a SMILES comes first, the peptide text is derived from it. Bridges are numbered along the chain shown (N, C = ends). [ ]: non-standard residue; d: D form. Trp(1-CH2COOH) = N[C@@H](Cc1cn(CC(=O)O)c2ccccc12)C(=O)O; Lys(Me2) = CN(C)CCCC[C@H](N)C(=O)O; Hyp = O=C(O)[C@@H]1C[C@@H](O)CN1; NMeNle = CCCC[C@H](NC)C(=O)O; NMeS = CN[C@@H](CO)C(=O)O; Pip = O=C(O)[C@@H]1CCCCN1; dPip = O=C(O)[C@H]1CCCCN1; Dab = NCC[C@H](N)C(=O)O; Dap = NC[C@H](N)C(=O)O

Target: T1, Human PD-L1/PD-1 (Homo sapiens, UniProt Q9NZQ7)
T1 construct: TVMV protease cleavage site (C); made in house; host or cells: HEK293T cells
T1 sequence (Q9NZQ7 with tags, fused parts or gaps): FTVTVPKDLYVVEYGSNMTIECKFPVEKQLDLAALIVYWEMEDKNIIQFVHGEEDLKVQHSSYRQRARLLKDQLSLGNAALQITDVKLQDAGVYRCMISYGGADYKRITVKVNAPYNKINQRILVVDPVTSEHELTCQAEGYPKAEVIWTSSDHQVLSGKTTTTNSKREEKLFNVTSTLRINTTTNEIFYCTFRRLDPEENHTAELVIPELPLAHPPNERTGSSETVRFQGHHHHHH
Assay: HTRF Human PD-L1/PD-1 binding assay (PD-1-Ig/PD-L1-His)
Details: PD-L1-His 10 nM, PD-1-Ig 20 nM; class symbol; read-out: HTRF Human PD-L1/PD-1 Binding Assay IC50 Range
Summary of the method: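 HTRF read-out (665/620 nm ratio) after 30 min equilibration with Eu-cryptate anti-Ig mAb (1 nM) and APC anti-His mAb (20 nM). Peptides preincubated 15 min with PD-L1-His (10 nM), then PD-1-Ig (20 nM) added for 15 min.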

**Q.** `CCCC[C@H]1C(=O)N(C)[C@@H](CCCC)C(=O)N[C@@H](CC(C)C)C(=O)N[C@H](C(=O)NCC(N)=O)CSCC(=O)N[C@@H](Cc2ccc(O)cc2)C(=O)N2CCCC[C@H]2C(=O)N[C@@H](CC(=O)O)C(=O)N2CCC[C@H]2C(=O)N[C@@H](Cc2cnc[nH]2)C(=O)N[C@@H](CCC(N)=O)C(=O)N2C[C@H](O)C[C@H]2C(=O)N[C@@H](Cc2c[nH]c3ccccc23)C(=O)N[C@@H](CO)C(=O)N[C@@H](Cc2cn(CC(=O)O)c3ccccc23)C(=O)N1C` [Example 1293] ({CH2CO}-Y[Pip]DPHQ[Hyp]WS[Trp(1-CH2COOH)][NMeNle][NMeNle]LCG-NH2; thioether N-14) was tested. Which IC50 did it give?
**A.** 0.01 to 0.0999 µM

**Q.** `CCCC[C@H]1C(=O)N(C)[C@@H](CCCC)C(=O)N[C@@H](CCN)C(=O)N[C@H](C(=O)NCC(N)=O)CSCC(=O)N[C@@H](Cc2ccc(O)cc2)C(=O)N2CCCC[C@H]2C(=O)N[C@@H](CC(=O)O)C(=O)N2CCC[C@H]2C(=O)N[C@@H](Cc2cnc[nH]2)C(=O)N[C@@H](CCC(=O)O)C(=O)N2C[C@H](O)C[C@H]2C(=O)N[C@@H](Cc2c[nH]c3ccccc23)C(=O)N[C@@H](CO)C(=O)N[C@@H](Cc2cn(CC(=O)O)c3ccccc23)C(=O)N1C` [Example 1294] ({CH2CO}-Y[Pip]DPHE[Hyp]WS[Trp(1-CH2COOH)][NMeNle][NMeNle][Dab]CG-NH2; thioether N-14) was tested. Which IC50 did it give?
**A.** 0.01 to 0.0999 µM

**Q.** `CCCC[C@H]1C(=O)N(C)[C@@H](CCCC)C(=O)N[C@@H](CN)C(=O)N[C@H](C(=O)NCC(N)=O)CSCC(=O)N[C@@H](Cc2ccc(O)cc2)C(=O)N2CCCC[C@H]2C(=O)N[C@@H](CC(N)=O)C(=O)N2CCC[C@H]2C(=O)N[C@@H](CN)C(=O)N[C@@H](CCC(=O)O)C(=O)N2C[C@H](O)C[C@H]2C(=O)N[C@@H](Cc2c[nH]c3ccccc23)C(=O)N[C@@H](CCN)C(=O)N[C@@H](Cc2cn(CC(=O)O)c3ccccc23)C(=O)N1C` [Example 1295] ({CH2CO}-Y[Pip]NP[Dap]E[Hyp]W[Dab][Trp(1-CH2COOH)][NMeNle][NMeNle][Dap]CG-NH2; thioether N-14) was tested. Which IC50 did it give?
**A.** 0.01 to 0.0999 µM

**Q.** Which IC50 does the source give for `CCCC[C@H]1C(=O)N(C)[C@@H](CCCC)C(=O)N[C@@H](CC(C)C)C(=O)N[C@H](C(=O)NCC(N)=O)CSCC(=O)N[C@@H](Cc2ccc(O)cc2)C(=O)N2CCCC[C@@H]2C(=O)N[C@@H](CC(=O)O)C(=O)N2CCC[C@H]2C(=O)N[C@@H](Cc2cnc[nH]2)C(=O)N[C@@H](CCCCN)C(=O)N2C[C@H](O)C[C@H]2C(=O)N[C@@H](Cc2c[nH]c3ccccc23)C(=O)N[C@@H](CCCCN)C(=O)N[C@@H](Cc2cn(CC(=O)O)c3ccccc23)C(=O)N1C` [Example 1296] ({CH2CO}-Y[dPip]DPHK[Hyp]WK[Trp(1-CH2COOH)][NMeNle][NMeNle]LCG-NH2; thioether N-14) here?
**A.** 0.001 to 0.0099 µM

**Q.** How did the IC50 turn out when `CCCC[C@H]1C(=O)N(C)[C@@H](CCCC)C(=O)N[C@@H](CC(C)C)C(=O)N[C@H](C(=O)NCC(N)=O)CSCC(=O)N[C@@H](Cc2ccc(O)cc2)C(=O)N2CCCC[C@H]2C(=O)N[C@@H](CC(N)=O)C(=O)N2CCC[C@H]2C(=O)N[C@@H](CN)C(=O)N[C@@H](CC(C)C)C(=O)N2C[C@H](O)C[C@H]2C(=O)N[C@@H](Cc2c[nH]c3ccccc23)C(=O)N[C@@H](CCN)C(=O)N[C@@H](Cc2cn(CC(=O)O)c3ccccc23)C(=O)N1C` [Example 1297] ({CH2CO}-Y[Pip]NP[Dap]L[Hyp]W[Dab][Trp(1-CH2COOH)][NMeNle][NMeNle]LCG-NH2; thioether N-14) was run?
**A.** 0.001 to 0.0099 µM

**Q.** With `CCCC[C@H]1C(=O)N(C)[C@@H](CCCC)C(=O)N[C@@H](CN)C(=O)N[C@H](C(=O)NCC(N)=O)CSCC(=O)N[C@@H](Cc2ccc(O)cc2)C(=O)N2CCCC[C@H]2C(=O)N[C@@H](CC(N)=O)C(=O)N2CCC[C@H]2C(=O)N[C@@H](Cc2cnc[nH]2)C(=O)N[C@@H](CCC(N)=O)C(=O)N2C[C@H](O)C[C@H]2C(=O)N[C@@H](Cc2c[nH]c3ccccc23)C(=O)N[C@@H](CCN)C(=O)N[C@@H](Cc2cn(CC(=O)O)c3ccccc23)C(=O)N1C` [Example 1298] ({CH2CO}-Y[Pip]NPHQ[Hyp]W[Dab][Trp(1-CH2COOH)][NMeNle][NMeNle][Dap]CG-NH2; thioether N-14) as the compound, how does the IC50 read?
**A.** 0.001 to 0.0099 µM

**Q.** `CCCC[C@H]1C(=O)N(C)[C@@H](CCCC)C(=O)N[C@@H](CC(C)C)C(=O)N[C@H](C(=O)NCC(N)=O)CSCC(=O)N[C@@H](Cc2ccc(O)cc2)C(=O)N2CCCC[C@H]2C(=O)N[C@@H](CC(N)=O)C(=O)N2CCC[C@H]2C(=O)N[C@@H](CN)C(=O)N[C@@H](CCC(=O)O)C(=O)N2C[C@H](O)C[C@H]2C(=O)N[C@@H](Cc2c[nH]c3ccccc23)C(=O)N[C@@H](CCN)C(=O)N[C@@H](Cc2cn(CC(=O)O)c3ccccc23)C(=O)N1C` [Example 1299] ({CH2CO}-Y[Pip]NP[Dap]E[Hyp]W[Dab][Trp(1-CH2COOH)][NMeNle][NMeNle]LCG-NH2; thioether N-14) was tested. Which IC50 did it give?
**A.** 0.001 to 0.0099 µM

**Q.** For `CCCC[C@H]1C(=O)N(C)[C@@H](CCCC)C(=O)N[C@@H](CN)C(=O)N[C@H](C(=O)NCC(N)=O)CSCC(=O)N[C@@H](Cc2ccc(O)cc2)C(=O)N2CCCC[C@H]2C(=O)N[C@@H](CC(N)=O)C(=O)N2CCC[C@H]2C(=O)N[C@@H](CN)C(=O)N[C@@H](CCC(=O)O)C(=O)N2C[C@H](O)C[C@H]2C(=O)N[C@@H](Cc2c[nH]c3ccccc23)C(=O)N[C@@H](CO)C(=O)N[C@@H](Cc2cn(CC(=O)O)c3ccccc23)C(=O)N1C` [Example 1300] ({CH2CO}-Y[Pip]NP[Dap]E[Hyp]WS[Trp(1-CH2COOH)][NMeNle][NMeNle][Dap]CG-NH2; thioether N-14), which IC50 is on record?
**A.** 0.001 to 0.0099 µM

**Q.** For `CCCC[C@H]1C(=O)N(C)[C@@H](CCCC)C(=O)N[C@@H](CN)C(=O)N[C@H](C(=O)NCC(N)=O)CSCC(=O)N[C@@H](Cc2ccc(O)cc2)C(=O)N2CCCC[C@H]2C(=O)N[C@@H](CC(N)=O)C(=O)N2CCC[C@H]2C(=O)N[C@@H](Cc2cnc[nH]2)C(=O)N[C@@H](CCC(N)=O)C(=O)N2C[C@H](O)C[C@H]2C(=O)N[C@@H](Cc2c[nH]c3ccccc23)C(=O)N[C@@H](CCN)C(=O)N[C@@H](Cc2cn(CC(=O)O)c3ccccc23)C(=O)N1C` [Example 1301] ({CH2CO}-Y[Pip]NPHQ[Hyp]W[Dab][Trp(1-CH2COOH)][NMeNle][NMeNle][Dap]CG-NH2; thioether N-14), which IC50 is on record?
**A.** 0.01 to 0.0999 µM

**Q.** With `CCCC[C@H]1C(=O)N(C)[C@@H](CCCC)C(=O)N[C@@H](CC(=O)O)C(=O)N[C@H](C(=O)NCC(N)=O)CSCC(=O)N[C@@H](Cc2ccc(O)cc2)C(=O)N2CCCC[C@H]2C(=O)N[C@@H](CC(=O)O)C(=O)N2CCC[C@H]2C(=O)N[C@@H](Cc2cnc[nH]2)C(=O)N[C@@H](CCCCN)C(=O)N2C[C@H](O)C[C@H]2C(=O)N[C@@H](Cc2c[nH]c3ccccc23)C(=O)N[C@@H](CCCCN)C(=O)N[C@@H](Cc2cn(CC(=O)O)c3ccccc23)C(=O)N1C` [Example 1302] ({CH2CO}-Y[Pip]DPHK[Hyp]WK[Trp(1-CH2COOH)][NMeNle][NMeNle]DCG-NH2; thioether N-14) as the compound, how does the IC50 read?
**A.** 0.001 to 0.0099 µM

**Q.** Which IC50 does the source give for `CCCC[C@H]1C(=O)N(C)[C@@H](CCCC)C(=O)N[C@@H](CCC(=O)O)C(=O)N[C@H](C(=O)NCC(N)=O)CSCC(=O)N[C@@H](Cc2ccc(O)cc2)C(=O)N2CCCC[C@H]2C(=O)N[C@@H](CC(N)=O)C(=O)N2CCC[C@H]2C(=O)N[C@@H](Cc2cnc[nH]2)C(=O)N[C@@H](CCCCN)C(=O)N2C[C@H](O)C[C@H]2C(=O)N[C@@H](Cc2c[nH]c3ccccc23)C(=O)N[C@@H](CCCCN)C(=O)N[C@@H](Cc2cn(CC(=O)O)c3ccccc23)C(=O)N1C` [Example 1303] ({CH2CO}-Y[Pip]NPHK[Hyp]WK[Trp(1-CH2COOH)][NMeNle][NMeNle]ECG-NH2; thioether N-14) here?
**A.** 0.01 to 0.0999 µM

**Q.** `CCCC[C@H]1C(=O)N(C)[C@@H](CCCC)C(=O)N[C@@H](CC(C)C)C(=O)N[C@H](C(=O)NCC(N)=O)CSCC(=O)N[C@@H](Cc2ccc(O)cc2)C(=O)N2CCCC[C@H]2C(=O)N[C@@H](CC(N)=O)C(=O)N2CCC[C@H]2C(=O)N[C@@H](CO)C(=O)N[C@@H](CCC(N)=O)C(=O)N2C[C@H](O)C[C@H]2C(=O)N[C@@H](Cc2c[nH]c3ccccc23)C(=O)N[C@@H](CO)C(=O)N[C@@H](Cc2cn(CC(=O)O)c3ccccc23)C(=O)N1C` [Example 1304] ({CH2CO}-Y[Pip]NPSQ[Hyp]WS[Trp(1-CH2COOH)][NMeNle][NMeNle]LCG-NH2; thioether N-14) was tested. Which IC50 did it give?
**A.** 0.01 to 0.0999 µM

**Q.** Which IC50 does the source give for `CCCC[C@H]1C(=O)N(C)[C@@H](CCCC)C(=O)N[C@@H](CCC(=O)O)C(=O)N[C@H](C(=O)NCC(N)=O)CSCC(=O)N[C@@H](Cc2ccc(O)cc2)C(=O)N2CCCC[C@H]2C(=O)N[C@@H](CC(N)=O)C(=O)N2CCC[C@H]2C(=O)N[C@@H](CO)C(=O)N[C@@H](CC(C)C)C(=O)N2C[C@H](O)C[C@H]2C(=O)N[C@@H](Cc2c[nH]c3ccccc23)C(=O)N[C@@H](CCN)C(=O)N[C@@H](Cc2cn(CC(=O)O)c3ccccc23)C(=O)N1C` [Example 1305] ({CH2CO}-Y[Pip]NPSL[Hyp]W[Dab][Trp(1-CH2COOH)][NMeNle][NMeNle]ECG-NH2; thioether N-14) here?
**A.** 0.001 to 0.0099 µM

**Q.** `CCCC[C@H]1C(=O)N(C)[C@@H](CCCC)C(=O)N[C@@H](CCCCN(C)C)C(=O)N[C@H](C(=O)NCC(N)=O)CSCC(=O)N[C@@H](Cc2ccc(O)cc2)C(=O)N2CCCC[C@H]2C(=O)N[C@@H](CC(=O)O)C(=O)N2CCC[C@H]2C(=O)N[C@@H](CN)C(=O)N[C@@H](CCC(=O)O)C(=O)N2C[C@H](O)C[C@H]2C(=O)N[C@@H](Cc2c[nH]c3ccccc23)C(=O)N[C@@H](CO)C(=O)N[C@@H](Cc2c[nH]c3ccccc23)C(=O)N1C` [Example 1306] ({CH2CO}-Y[Pip]DP[Dap]E[Hyp]WSW[NMeNle][NMeNle][Lys(Me2)]CG-NH2; thioether N-14) was tested. Which IC50 did it give?
**A.** 0.01 to 0.0999 µM

**Q.** For `CCCC[C@H]1C(=O)N(C)[C@@H](CO)C(=O)N[C@@H](CCC(=O)O)C(=O)N[C@H](C(=O)NCC(N)=O)CSCC(=O)N[C@@H](Cc2ccc(O)cc2)C(=O)N2CCCC[C@H]2C(=O)N[C@@H](CC(=O)O)C(=O)N2CCC[C@H]2C(=O)N[C@@H](CN)C(=O)N[C@@H](CCC(=O)O)C(=O)N2C[C@H](O)C[C@H]2C(=O)N[C@@H](Cc2c[nH]c3ccccc23)C(=O)N[C@@H](CO)C(=O)N[C@@H](Cc2c[nH]c3ccccc23)C(=O)N1C` [Example 1309] ({CH2CO}-Y[Pip]DP[Dap]E[Hyp]WSW[NMeNle][NMeS]ECG-NH2; thioether N-14), which IC50 is on record?
**A.** 0.01 to 0.0999 µM
